Patent publication US10385399B2, “Method for determining clinically relevant hypoxia in cancer” (AARHUS UNIVERSITET, priority 2011, dated 2019)

Columns and labels:
[1] = tested on: head and neck cancer patients; experiment: DAHANCA 5 trial: Nimorazole or placebo in conjunction with conventional radiotherapy, loco-regional tumour control; assay type: in vivo, human
Text: In order to test the predictive potential for hypoxic modification of radiotherapy obtained by nitroimidazoles, the 15-gene classifier was applied on all 323 HNSCC biopsies from patients enrolled in the DAHANCA 5 trial. […] Overall, the hypoxia classifier categorized 114 tumours (35%) as “more” hypoxic and 209 tumours (65%) as “less” hypoxic. […] No significant difference in loco-regional tumour control could be detected between the two groups if treatment intervention was ignored (p=0.07), (FIG. 3b). […] This hypothesis could not be supported by the 15-gene hypoxia classifier that identified similar relative distribution of “more” hypoxic tumours among the HPV/p16-positive tumours as among the HPV/p16-negative tumours (Table 5). Thus, it appears that the cause for different prognosis must be searched elsewhere and might be related to a reduced number of radio-resistant cancer stem cells in the HPV/p16-positive tumors.
Hypoxia responsive and pH independent genes were identified by microarray analysis (Affymetrix Human Genome U133 Plus 2.0 Array) of relevant cell lines of squamous cell carcinoma, which were cultured in vitro where microenvironment conditions had been manipulated (0.1% vs. 5% pO2 and 7.4 vs. 6.3 pH). In vivo validation was performed by converting the cell lines into a xenograft model and comparing the gene expression in hypoxic and non-hypoxic tumour areas (Wilcoxon signed rank analysis) guided by a well established hypoxic tracer and [^18F] FAZA. A hypoxia gene expression classifier was build by separating 58 previously hypoxia evaluated formalin fixated paraffin embedded (FFPE) head and neck tumour biopsies into “more” and “less” hypoxic tumours. […] Independent tumours were then to be classified to the group (“more” or “less” hypoxic), in which their gene expression expressed the greatest similarities. The classifier was tested in an independent set of 323 FFPE biopsies of head and neck cancer, were patients had been randomized and treated with either placebo or the hypoxic modifier Nimorazole in conjunction with conventional radiotherapy^4. We verified whether the 15-gene hypoxia classifier could identify a subset of tumours having benefit from Nimorazole in conjunction with radiotherapy, by comparing the clinical outcome and the response to hypoxic modification in the two classified groups with log-rank test, cox-regression analysis and test for interaction.
In vitro experiments were based on human squamous cell carcinoma cell lines UTSCC5, UTSCC14, UTSCC15 (oral carcinoma), FADUDD (hypopharyngeal carcinoma) and SiHa (uterine cervix carcinoma). Xenograft tumours for in vivo validation were generated with cell lines of UTSCC33, FADUDD or SiHa. The hypoxia classifier was generated from 58 previously hypoxia evaluated head and neck cancer biopsies archived as formalin fixated and paraffin embedded samples (FFPE). To test the prognostic and predictive impact of the developed classifier, we used 323 archival supraglottic larynx or pharynx tumour samples (FFPE) from the randomized, double blinded DAHANCA 5 trial.
H, N and M areas of the xenograft tumours were compared with the Wilcoxon's signed rank analysis. End point used in the evaluation of the classifier in the independent data set, was actuarial loco-regional tumour control probability at 5 years, defined as complete and persistent disappearance of the disease in the primary tumour (T site) and regional lymph nodes (N site) after radiotherapy. Failure was recorded in the event of recurrent tumour or if the tumour never completely disappeared. Follow-up was completed as part of the original study. […] Patient and tumour characteristics of the “more” and “less” hypoxic” groups divided by the hypoxia classifier were compared using the Chi Squared test for categorical variables. Loco-regional tumour control in the two groups was illustrated with a Kaplan Meier plot and compared using the log-rank test. […]

[2] = tested on: head and neck cancer patients; details: cited from earlier work

O=[N+]([O-])c1cncn1CCN1CCOCC1 [Nimorazole, 4-[2-(5-nitro-1H-imidazol-1-yl)ethyl]morpholine]
HR (95% CI) loco-regional tumour control, Nimorazole vs placebo ([1]; Cox multivariate analysis, "Less" hypoxic group by 15-gene hypoxia classifier): 0.97 (0.65-1.44)
HR (95% CI) loco-regional tumour control, Nimorazole vs placebo ([1]; Cox multivariate analysis, "More" hypoxic group by 15-gene hypoxia classifier): 0.44 (0.27-0.73)
HR (95% CI) loco-regional tumour control, Nimorazole vs placebo ([1]; Cox multivariate analysis, all patients (n = 323)): 0.70 (0.51-0.96)
HR (95% CI) loco-regional tumour control, Nimorazole vs placebo ([1]; Univariate analysis, "Less" hypoxic group by 15-gene hypoxia classifier (n = 209)): 0.85 (0.50-1.38)
HR (95% CI) loco-regional tumour control, Nimorazole vs placebo ([1]; Univariate analysis, "More" hypoxic group by 15-gene hypoxia classifier (n = 114)): 0.46 (0.29-0.75)
HR (95% CI) loco-regional tumour control, Nimorazole vs placebo ([1]; Univariate analysis, all patients (n = 323), with conventional radiotherapy): 0.72 (0.53-0.97)
outcome in terms of loco-regional tumour control after radiotherapy vs placebo ([1]; all 323 HNSCC patients, irrespective of hypoxia classification, p=0.03): significantly improved outcome
loco-regional tumour control after 5 years ([1]; group classified as "less" hypoxic, Nimorazole with radiotherapy (vs. 44%, p=0.42)): 50%
loco-regional tumour control after 5 years ([1]; group classified as "more" hypoxic, Nimorazole with radiotherapy (placebo 18%, p=0.002)): 49%
outcome compared to placebo in conjunction with radiotherapy ([2]; DAHANCA 5 trial as described in the background, head and neck cancer patients): improved outcome
effect on loco-regional tumour control of HPV/p16-positive tumors ([2]; HPV/p16-positive tumours, previously shown in the DAHANCA 5 study): without any beneficial effect
